Among the data in patent US20250084074A1, “SUBSTITUTED HETEROCYCLES AS HSET INHIBITORS” (MERCK PATENT GMBH, priority 2022, published 2025) are IC50 values, retold here.

Sequence of HSET full length protein (Q9BW19 whole entry): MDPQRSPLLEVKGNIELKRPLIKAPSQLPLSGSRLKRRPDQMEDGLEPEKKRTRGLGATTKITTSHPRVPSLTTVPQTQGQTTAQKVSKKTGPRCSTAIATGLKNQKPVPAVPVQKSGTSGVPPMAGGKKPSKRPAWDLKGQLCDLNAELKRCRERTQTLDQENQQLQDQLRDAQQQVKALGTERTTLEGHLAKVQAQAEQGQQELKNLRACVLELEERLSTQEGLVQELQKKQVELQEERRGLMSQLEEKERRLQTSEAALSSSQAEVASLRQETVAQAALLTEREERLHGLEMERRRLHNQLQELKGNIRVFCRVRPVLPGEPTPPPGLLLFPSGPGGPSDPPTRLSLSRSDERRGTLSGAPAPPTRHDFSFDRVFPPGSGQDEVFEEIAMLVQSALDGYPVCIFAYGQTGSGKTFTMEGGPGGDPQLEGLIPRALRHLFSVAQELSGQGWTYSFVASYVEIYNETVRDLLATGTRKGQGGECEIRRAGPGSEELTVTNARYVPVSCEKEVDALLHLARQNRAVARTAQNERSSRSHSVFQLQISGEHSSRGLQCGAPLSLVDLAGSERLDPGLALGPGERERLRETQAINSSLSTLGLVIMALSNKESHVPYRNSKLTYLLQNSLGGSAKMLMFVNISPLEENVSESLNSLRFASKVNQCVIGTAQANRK

This assay addresses HSET full length protein (Homo sapiens (Human), UniProt Q9BW19). The assay is described as follows: HSET ADP-Glo Assay S - 3 μM ATP. It counts as biochemical. Particulars: 5 nM HSET, 70 μg/mL microtubule, 80 min at rt, read-out: COMBINED HSET ADP GLO IC50. In short, it runs like this:
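Full-length human HSET (5 nM) with paclitaxel-stabilised bovine brain microtubules (70 μg/mL) in HEPES pH 6.8 buffer was preincubated 10 min with compound. ATP at 3 μM started the reaction, which ran 80 min at rt. ADP formed was measured by ADP-Glo luminescence.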
`Cc1nc(-c2cccc(C(=O)NC3CN(C(=O)Nc4nc(C)c(C(=O)OC(C)(C)C)s4)C3)c2)no1` [Example 228, tert-Butyl 4-methyl-2-[[3-[[3-(5-methyl-1,2,4-oxadiazol-3-yl)benzoyl]amino]azetidine-1-carbonyl]amino]thiazole-5-carboxylate]: the IC50 amounted to 0.086 µM.

On to `Cc1nc(-c2cccc(C(=O)NC3CN(C(=O)N(C)c4nc(C)c(C(=O)OC(C)(C)C)s4)C3)c2)no1` [Example 229, tert-Butyl 4-methyl-2-[methyl-[3-[[3-(5-methyl-1,2,4-oxadiazol-3-yl)benzoyl]amino]azetidine-1-carbonyl]amino]thiazole-5-carboxylate], for which the IC50 is 0.052 µM.

With `Cc1nc(-c2ccc3ccnc(NC4CN(C(=O)Nc5nc(C)c(C(=O)OC(C)(C)C)s5)C4)c3c2)no1` [Example 230, tert-Butyl 4-methyl-2-[[3-[[7-(5-methyl-1,2,4-oxadiazol-3-yl)-1-isoquinolyl]amino]azetidine-1-carbonyl]amino]thiazole-5-carboxylate], the IC50 was 0.002 µM.

Turning to `Cc1nc(-c2ccc3ccnc(NC4CN(C(=O)N(C)c5nc(C)c(C(=O)OC(C)(C)C)s5)C4)c3c2)no1` [Example 231, tert-Butyl 4-methyl-2-[methyl-[3-[[7-(5-methyl-1,2,4-oxadiazol-3-yl)-1-isoquinolyl]amino]azetidine-1-carbonyl]amino]thiazole-5-carboxylate], the IC50 was determined as 0.005 µM.

Consider `Cc1nc(-c2ccc3ccnc(NC4CN(C(=O)Nc5nc(C)c(C(C)(C)C)s5)C4)c3c2)no1` [Example 232, N-(5-(tert-butyl)-4-methylthiazol-2-yl)-3-((7-(5-methyl-1,2,4-oxadiazol-3-yl)isoquinolin-1-yl)amino)azetidine-1-carboxamide], for which the IC50 came to 0.044 µM.

Consider `CCCOC(=O)c1sc(N(C)C(=O)CCNC(=O)c2cc(Cl)cc(-c3noc(C)n3)c2)nc1C` [Example 233, Propyl 2-(3-(3-chloro-5-(5-methyl-1,2,4-oxadiazol-3-yl)benzamido)-N-methylpropanamido)-4-methylthiazole-5-carboxylate], for which the IC50 was 0.03 µM.

Turning to `CCCOC(=O)c1sc(NC(=O)[C@@H]2C[C@H](NC(=O)c3cccc(-c4noc(C)n4)c3)CN2C)nc1C` [Example 234, Propyl 4-methyl-2-((2S,4S)-1-methyl-4-(3-(5-methyl-1,2,4-oxadiazol-3-yl)benzamido)pyrrolidine-2-carboxamido)thiazole-5-carboxylate], the IC50 was determined as 2.1 µM.

For the molecule `CCCOC(=O)c1sc(NC(=O)[C@H]2C[C@@H](NC(=O)c3cccc(-c4noc(C)n4)c3)CN2C)nc1C` [Example 235, Propyl 4-methyl-2-((2R,4R)-1-methyl-4-(3-(5-methyl-1,2,4-oxadiazol-3-yl)benzamido)pyrrolidine-2-carboxamido)thiazole-5-carboxylate], the IC50 is 6.78 µM.

As for `Cc1nc(-c2ccc3ccnc(N[C@H]4C[C@@H](C(=O)Nc5nc(C)c(C(C)(C)C)s5)N(C)C4)c3c2)no1` [Example 236, (2S,4S)-N-(5-(tert-butyl)-4-methylthiazol-2-yl)-1-methyl-4-((7-(5-methyl-1,2,4-oxadiazol-3-yl)isoquinolin-1-yl)amino)pyrrolidine-2-carboxamide], the IC50 came to 2.84 µM.

As for `CCCOC(=O)c1sc(NC(=O)[C@@H]2C[C@H](Nc3nccc4ccc(-c5noc(C)n5)cc34)CN2C)nc1C` [Example 237, Propyl 4-methyl-2-((2S,4S)-1-methyl-4-((7-(5-methyl-1,2,4-oxadiazol-3-yl)isoquinolin-1-yl)amino)pyrrolidine-2-carboxamido)thiazole-5-carboxylate], the IC50 turned out to be 0.1 µM.

Regarding `CCCCCc1cc(NC(=O)[C@@H]2C[C@H](Nc3nccc4ccc(-c5noc(C)n5)cc34)CN2C)nn1C` [Example 238, (2S,4S)-1-methyl-4-((7-(5-methyl-1,2,4-oxadiazol-3-yl)isoquinolin-1-yl)amino)-N-(1-methyl-5-pentyl-1 H-pyrazol-3-yl)pyrrolidine-2-carboxamide], the IC50 amounted to 6.74 µM.

In the case of `CCCOC(=O)c1sc(NC(=O)[C@@H]2C[C@H](Nc3nccc4ccc(-c5noc(C)n5)cc34)CN2)nc1C` [Example 239, Propyl 4-methyl-2-((2S,4S)-4-((7-(5-methyl-1,2,4-oxadiazol-3-yl)isoquinolin-1-yl)amino)pyrrolidine-2-carboxamido)thiazole-5-carboxylate], the IC50 came to 0.119 µM.

In the case of `CCCOC(=O)c1sc(C(=O)N2CC[C@H](NC(=O)c3cccc(-c4noc(C)n4)c3)C2)nc1C` [Example 240, Propyl (S)-4-methyl-2-(3-(3-(5-methyl-1,2,4-oxadiazol-3-yl)benzamido)pyrrolidine-1-carbonyl)thiazole-5-carboxylate], the IC50 came to 0.098 µM.

In the case of `CCCOC(=O)c1sc(C(=O)N2CC[C@H](NC(=O)c3cccc(-c4nnn(C)n4)c3)C2)nc1C` [Example 242, Propyl 4-methyl-2-[(3S)-3-[[3-(2-methyltetrazol-5-yl)benzoyl]amino]pyrrolidine-1-carbonyl]thiazole-5-carboxylate], the IC50 was 0.03 µM.

For the molecule `CCCOC(=O)c1sc(C(=O)N2CC[C@H](Nc3nccc4ccc(-c5noc(C)n5)cc34)C2)nc1C` [Example 243, Propyl (S)-4-methyl-2-(3-((7-(5-methyl-1,2,4-oxadiazol-3-yl)isoquinolin-1-yl)amino)pyrrolidine-1-carbonyl)thiazole-5-carboxylate], the IC50 was 0.011 µM.

As for `CCCOC(=O)c1sc(C(=O)N2CC[C@@H](Nc3nccc4ccc(-c5noc(C)n5)cc34)C2)nc1C` [Example 244, Propyl (R)-4-methyl-2-(3-((7-(5-methyl-1,2,4-oxadiazol-3-yl)isoquinolin-1-yl)amino)pyrrolidine-1-carbonyl)thiazole-5-carboxylate], the IC50 is 0.608 µM.

On to `CCCOC(=O)c1cc(C(=O)N2CC[C@H](Nc3nccc4ccc(-c5noc(C)n5)cc34)C2)nn1C` [Example 245, Propyl (S)-1-methyl-3-(3-((7-(5-methyl-1,2,4-oxadiazol-3-yl)isoquinolin-1-yl)amino)pyrrolidine-1-carbonyl)-1 H-pyrazole-5-carboxylate], for which the IC50 came to 7.47 µM.

In the case of `Cc1nc(-c2ccc3ccnc(N[C@H]4CCN(C(=O)c5nc(C)c(C(C)(C)C)s5)C4)c3c2)no1` [Example 246, (S)-(5-(tert-butyl)-4-methylthiazol-2-yl)(3-((7-(5-methyl-1,2,4-oxadiazol-3-yl)isoquinolin-1-yl)amino)pyrrolidin-1-yl)methanone], the IC50 stood at 1.74 µM.

Consider `Cc1nc(-c2ccc3ccnc(N[C@H]4CCN(C(=O)c5cc(C6CC6)n(C)n5)C4)c3c2)no1` [Example 247, (S)-(5-cyclopropyl-1-methyl-1 H-pyrazol-3-yl)(3-((7-(5-methyl-1,2,4-oxadiazol-3-yl)isoquinolin-1-yl)amino)pyrrolidin-1-yl)methanone], for which the IC50 came to 13.6 µM.

`Cc1nc(-c2ccc3ccnc(N[C@H]4CCN(C(=O)c5cc(-c6ccccc6)n(C)n5)C4)c3c2)no1` [Example 248, (S)-(3-((7-(5-methyl-1,2,4-oxadiazol-3-yl)isoquinolin-1-yl)amino)pyrrolidin-1-yl)(1-methyl-5-phenyl-1 H-pyrazol-3-yl)methanone]: the half-maximal inhibitory concentration (IC50) was 4.14 µM.

On to `Cc1nc(-c2ccc3ccnc(N[C@H]4CCN(C(=O)c5cc(C(C)C)n(C)n5)C4)c3c2)no1` [Example 249, (S)-(5-isopropyl-1-methyl-1 H-pyrazol-3-yl)(3-((7-(5-methyl-1,2,4-oxadiazol-3-yl)isoquinolin-1-yl)amino)pyrrolidin-1-yl)methanone], for which the IC50 is 14.5 µM.

Consider `Cc1nc(-c2ccc3ccnc(N[C@H]4CCN(C(=O)c5cnc[nH]5)C4)c3c2)no1` [Example 250, (S)-(1 H-imidazol-5-yl)(3-((7-(5-methyl-1,2,4-oxadiazol-3-yl)isoquinolin-1-yl)amino)pyrrolidin-1-yl)methanone], for which the IC50 is 9.46 µM.

In the case of `Cc1cc(C(=O)N2CC[C@H](Nc3nccc4ccc(-c5noc(C)n5)cc34)C2)no1` [Example 251, (5-Methylisoxazol-3-yl)-[(3S)-3-[[7-(5-methyl-1,2,4-oxadiazol-3-yl)-1-isoquinolyl]amino]pyrrolidin-1-yl]methanone], the IC50 is 5.62 µM.

Turning to `Cc1nc(-c2ccc3ccnc(N[C@H]4CCN(C(=O)c5cnn(C(C)(C)C)c5)C4)c3c2)no1` [Example 252, (1-tert-Butylpyrazol-4-yl)-[(3S)-3-[[7-(5-methyl-1,2,4-oxadiazol-3-yl)-1-isoquinolyl]amino]pyrrolidin-1-yl]methanone], the IC50 stood at 16.4 µM.

Consider `Cc1nc(-c2ccc3ccnc(N[C@H]4CCN(C(=O)c5cc(C(C)C)[nH]n5)C4)c3c2)no1` [Example 253, (S)-(5-isopropyl-1 H-pyrazol-3-yl)(3-((7-(5-methyl-1,2,4-oxadiazol-3-yl)isoquinolin-1-yl)amino)pyrrolidin-1-yl)methanone], for which the IC50 was 3.41 µM.

Take `Cc1nc(-c2ccc3ccnc(N[C@H]4CCN(C(=O)c5cc(C(C)(C)C)[nH]n5)C4)c3c2)no1` [Example 254, (S)-(5-(tert-butyl)-1 H-pyrazol-3-yl)(3-((7-(5-methyl-1,2,4-oxadiazol-3-yl)isoquinolin-1-yl)amino)pyrrolidin-1-yl)methanone]: the IC50 was determined as 6.1 µM.

Turning to `CCCOC(=O)c1sc(C(=O)N2CC[C@@H](Nc3nccc4ccc(-c5noc(C)n5)cc34)[C@@H]2C)nc1C` [Example 255, Propyl 4-methyl-2-((2S,3R)-2-methyl-3-((7-(5-methyl-1,2,4-oxadiazol-3-yl)isoquinolin-1-yl)amino)pyrrolidine-1-carbonyl)thiazole-5-carboxylate], the IC50 was 0.027 µM.

In the case of `CCCOC(=O)c1sc(C(=O)N2C[C@@H](F)[C@H](Nc3nccc4ccc(-c5noc(C)n5)cc34)C2)nc1C` [Example 256, propyl 2-((3R,4R)-3-fluoro-4-((7-(5-methyl-1,2,4-oxadiazol-3-yl)isoquinolin-1-yl)amino)pyrrolidine-1-carbonyl)-4-methylthiazole-5-carboxylate], the IC50 was determined as 0.02 µM.
